Source: ChEMBL document CHEMBL1129227, “Synthesis and in vitro cytotoxic activity of novel hexahydro-2H-pyrido[1,2-b]isoquinolines against human brain tumor cell lines” (1997)

Assays:
Assay type in all cases: functional
Details in all cases: read-out: LC50 (the source's name)
[1] = system: D283 Med; experiment: Compound was evaluated for the in vitro cytotoxicity against […] Med human brain medulloblastoma tumor cell line
[2] = system: A 172; experiment: Compound was evaluated for the in vitro cytotoxicity against A-172 human glioblastoma cell line
[3] = system: T98G; experiment: Compound was evaluated for the in vitro cytotoxicity against T98G human glioblastoma cell line

SMILES	CC50 [1]	CC50 [2]	CC50 [3]
CC(C)[C@H]1CCN2Cc3ccccc3C[C@H]2[C@H]1/N=C/c1ccc(Cl)cc1	50 µM	97 µM	45 µM
C=C(C)[C@H]1CCN2Cc3ccccc3C[C@H]2[C@H]1NCc1ccc(Cl)cc1	29 µM	55 µM	42 µM
C=C(C)[C@H]1CCN2Cc3ccccc3C[C@H]2[C@@H]1NCc1ccccc1	53 µM	58 µM	43 µM
C=C(C)[C@H]1CCN2Cc3ccccc3C[C@H]2[C@@H]1NCC(F)(F)F	40 µM	157 µM	172 µM
CC(C)[C@H]1CCN2Cc3ccccc3C[C@H]2[C@H]1/N=C/c1ccccc1		226 µM	222 µM
C=C(C)[C@H]1CCN2Cc3ccccc3C[C@H]2[C@H]1O	143 µM	158 µM	
